“Also recorded” adds a separate entry of the source. Peptide text beside a SMILES is read from it.
B1: full length IL-4: recombinant human IL-4 (Peprotech) used on human H9 cell-derived neurons (protein, UniProt P05112 25-153, looked up)
Interleukin-4: HKCDITLQEIIKTLNSLTEQKTLCTELTVTDIFAASKNTTEKETFCRAATVLRQFYSHHEKDTRCLGATAQQFHRHKQLIRFLKRLDRNLWGLAGLNSCPVKEANQSTLENFLERLKTIMREKYSKCSS

Tests used:
[1] = test system: mouse embryonic fibroblasts (Mef); test: CellTiter-blue cell viability assay (ctb), fibroblasts; format: cell-based; details: Mef cells, increasing concentrations, FIG. 2A
Description: (§1) Toxicity was checked by subjecting mouse embryonic fibroblasts (Mef) and the hippocampal cell line HT22 to a CellTiter-blue cell viability assay (ctb).
(§2) Mouse embryonic fibroblasts (Mef) (Sigma-Aldrich) and hippocampal HT22 (ThermoScientific) cells were cultured according to the manufacturer's protocols. Ctb assays were performed according to the manufacturer's protocols (Promega).

[2] = test system: hippocampal cell line HT22; test: CellTiter-blue cell viability assay (ctb), hippocampal cell line; format: cell-based; details: HT22 cells, increasing concentrations, FIG. 2B
Description: as §1, §2

[3] = test system: experimental autoimmune encephalomyelitis (EAE) mice; test: EAE clinical score, treatment during the chronic phase; format: in vivo, mouse; details: chronic phase of EAE, vs PBS
Description: To test whether Link4 has similar effects to IL-4 in vivo, two pilot experiments were performed. In the first experiment (FIG. 3A), B16 mice were subjected to EAE and treated with IL-4, Link4, Ph8 and PBS (n=6-7 animals per group) via lumbar intrathecal injection directly into the cerebrospinal fluid (CSF) every other day for 14 days, in the chronic phase of the disease starting from day 5 after the first disease peak (grey bar). […] For better clinical translation, the treatment was then switched to nasal treatment with IL-4 and Link4 (FIG. 3B; 2 pooled experiments, n=15-16 per group). Nasally applied treatments can enter the brain through the cribriform plate, where olfactory nerve fibers cross through the bone, resulting in a connection between the roof of the nasal cavity and the brain (C. F. Xiao, F. J. Davis, B. C. Chauhan, K. L. Viola, P. N. Lacor, P. T. Velasco, W. L. Klein, and N. B. Chauhan, Brain transit and ameliorative effects of intranasally delivered anti-amyloid-beta oligomer antibody in 5XFAD mice. J Alzheimers Dis 35, 777-788 (2013)). Again, both IL-4 and Link4 treatments were beneficial.
For active EAE, female 9-10-weeks-old C57BI6 mice were immunized as previously described (M. Paterka, J. O. Voss, J. Werr, E. Reuter, S. Franck, T. Leuenberger, J. Herz, H. Radbruch, T. Bopp, V. Siffrin, and F. Zipp, Dendritic cells tip the balance towards induction of regulatory T cells upon priming in experimental autoimmune encephalomyelitis. J Autoimmun 67, 108-114 (2017)) by subcutaneous injection of 200 μg myelin oligodendrocyte […] 35-55 (MOG35-55) mixed with complete Freund adjuvant (CFA). Following the MOG35-55 immunization 400 ng pertussis toxin (PTX) was administered intraperitoneally at the day of immunizaton and after 24 h. Clinical signs were scored using the following parameters:
Treatment with rIL-4 (1 μg, Peprotech), Ph8 (1 μg, custom synthesized, Schafer N), Link4 (1 μg, custom synthesized, Schafer N) or vehicle (PBS) was performed during the chronic phase of the disease models by lumbar intrathecal injection (R. Lu and A. Schmidtko, Direct intrathecal drug delivery in mice for detecting in vivo effects of cGMP on pain processing. Methods Mol Biol 1020, 215-221 (2013)) or nasal application of IL-4 and Link4 was performed according to published procedures (C. F. Xiao, F. J. Davis, B. C. Chauhan, K. L. Viola, P. N. Lacor, P. T. Velasco, W. L. Klein, and N. B. Chauhan, Brain transit and ameliorative effects of intranasally delivered anti-amyloid-beta oligomer antibody in SXFAD mice. J Alzheimers Dis 35, 777-788 (2013)). Mice were pre-trained to avoid stress and held at a 45 degree angle to apply IL-4 solution (1 μg, Peprotech) to the nostrils using a pipette tip.

[4] = test system: human H9 cell-derived neurons; test: Growth assay for human H9 cells; format: cell-based; details: 50 ng/ml, 24 h, vs PBS, FIG. 7B
Excerpt: B: Human Link4 induced neurite outgrowth in human H9 cell-derived neurons. Human neurons were cultivated with commercially available human neural stem cells (H9 cells), which were then differentiated to become neurons. […] The growth assay for human H9 cells described herein can be used to easily detect effects of the derivative peptides of the present invention on human neurons. In particular, this assay can be used to quickly test whether derivative peptides falling within the scope of the present invention are functional.
H9 human neural stem cells (H9 hNSCs) were purchased from Gibco and expanded according to the manufacturer's instructions. For consecutive neural differentiation hNSCs were harvested and reseeded on glass coverslips coated with Matrigel (High Concentration, Growth Factor Reduced; Corning; diluted 1:100 in Knockout DMEM [Gibco]) at a density of 25.000 cells/cm^2. hNSCs were allowed to rest for 48 hours in a basal neuronal medium (Neurobasal, 1X B27, 1x Glutamax, 1x Penicillin/Streptomycin, all from Gibco) before changing to EnStem A Neural Differentiation Medium (SCM017, Millipore) for a further 4 days. Cultures were treated with recombinant human IL-4 (Peprotech) or human Link4 at 50 ng/ml or equal volumes of PBS for 24 h. […]

[5] = test system: CD11b+ bone marrow-derived macrophages (BMDMs); test: Differentiation of bone marrow-derived macrophages; format: cell-based, mouse; details: different concentrations, FIG. 4A
Description: (§3) A-B: Effects of incubation with IL-4 and different concentrations of Link4 and Link13 on the differentiation of A: CD11b^+ bone marrow-derived macrophages (BMDMs) into F80^+CD206^+ cells, and B: CD4^+ T cells into Gata3^+ cells. C-D: FACS results for different populations of T cells and CD11b^+MHCII^+ monocytes/macrophages/microglia of immune cells isolated from C: spleen and D: central nervous system (CNS) of EAE mice treated with PBS, IL-4 or Link4.
(§4) In order to investigate whether Link4 and Link13 are able to modulate immune cells, in vitro assays were performed on bone marrow-derived macrophages (BDMBs) and on naïve T cells.
Murine BMDMs were isolated from adult C57BL/6 mice. The tibia and femur bones were flushed with sterile PBS and the bone marrow was collected in washing medium. After filtering the cell suspension trough a 100 μm nylon mesh, the cells were centrifuged (5 min, 550 g, 4° C.) and resuspended in mouse medium (10% FCS, 1% P/S, 1% L-glutamine, 0.1% β-mercaptoethanol, 1% HEPES in RPMI buffer). For the in vitro generation of BMDMs cells were plated in 6 well-plates and exposed to 20 ng/ml Macrophage […] (M-CSF) for 4 days. For the activation of the cells, Dexametason (5×10^−7M), LPS (10 μg/ml) and IL-4 (10 ng/ml) were added to the culture for the following 3 days.

CD4+ T cells = test: TH2 differentiation of naive T cells; format: cell-based, mouse; details: different concentrations, FIG. 4B
Description: as §3, §4
For the isolation of T lymphocytes 5-8 week old C57BL/6 mice were sacrificed by cervical dislocation and the spleens and lymph nodes (LN) were isolated and rubbed trough a 100 μm cell strainer into a 50 ml tube with washing medium (5% FCS, 1% P/S,1% HEPES in PBS). After washing, the cells were centrifuged for 5 min at 550 g at 4° C. To remove the red blood cells the […] was re-suspended in lysis buffer followed by centrifugation (5 min, 550 g, 4° C.). The cells were resuspended in MACS buffer and magnetic lymphocyte sorting was performed on ice, using the MidiMACS and QuadroMACS Seperators. A CD4 untouched and CD8 touched cell sort was performed a washing step in ml MACS buffer (5 min, 550 g, 4° C.). Cells were incubated with CD4 T cell biotin antibody cocktail (Miltenyi Biotec) in MACS buffer for 5 min at 4° C. Subsequently, anti-biotin microbeads and CD8 microbeads in MACS buffer was added. CD8 microbeads were added to reduce the possible contamination of CD8^+ lymphocytes. After 10 min of incubation at 4° C. the cells were washed again and resuspended in MACS buffer. MACS columns were pre equilibrated and topped with pre-separation filters (30 μm). A maximum of 300×10^6 cells were added to each column followed by 3 consecutive washing steps with MACS buffer. […] The purity of the magnetic cells sorts was assessed by comparing pre- and post-sort samples by flow cytometry. […]

[6] = cited from earlier work
[7] = lumbar intrathecal injection, 1 μg every other day for 14 days

| Molecule | clinical score [3, 7] | neurite outgrowth [4] | differentiation of CD11b+ BMDMs into F80+CD206+ cells [5] | differentiation of CD4+ T cells into Gata3+ cells (CD4+ T cells) | further results |
| --- | --- | --- | --- | --- | --- |
| CC[C@H](C)[C@H](NC(=O)CNC(=O)[C@@H](NC(=O)[C@@H](NC(=O)[C@@H](N)CCC(=O)O)[C@@H](C)CC)[C@@H](C)CC)C(=O)NCC(=O)N1CCC[C@H]1C(=O)N[C@@H](CCCNC(=N)N)C(=O)N[C@@H](CC(C)C)C(=O)N[C@@H](Cc1ccccc1)C(=O)N[C@@H](CCCNC(=N)N)C(=O)N[C@@H](C)C(=O)N[C@@H](Cc1ccccc1)C(=O)N[C@@H](CCCNC(=N)N)C(=O)N[C@@H](CS)C(=O)N[C@@H](CO)C(=O)NCC(=O)N[C@@H](CO)C(=O)N[C@@H](CCCNC(=N)N)C(=O)N[C@@H](C)C(=O)N[C@@H](CO)C(=O)N[C@@H](CCCCN)C(=O)N[C@H](C(=O)N[C@@H](CC(C)C)C(=O)N[C@@H](CCCNC(=N)N)C(=O)N[C@H](C(=O)N[C@@H](Cc1ccccc1)C(=O)N[C@@H](Cc1ccc(O)cc1)C(=O)N[C@@H](CC(C)C)C(=O)O)[C@@H](C)CC)C(C)C [AvoC] (H-EIIGIGPRLFRAFRCSGSRASKVLRIFYL-OH; N-terminus and C-terminus assumed) |  |  |  |  | toxic effects on fibroblasts (cell viability) [1]: no toxic effects; toxic effects on hippocampal neurons (cell viability) [2]: no toxic effects |
| WNRSEIIKTGSKTIMREKY (listed as Homo sapiens) [human Link4] | equally effective as mouse Link4 | increase neurite outgrowth |  |  |  |
| interleukin-4 [IL-4] | ameliorate clinical symptoms; also recorded: significant improvement in the clinical score; also recorded: significant amelioration of the clinical score |  | increased the expression of the differentiation markers F80 and CD206 | observed | clinical score ([3]; lumbar intrathecal injection, 1 μg every other day for 14 days, listed as mouse full length IL-4): reducing disease symptoms; clinical score ([3]; nasal application): equally effective; also recorded: significant improvement in the clinical score; also recorded: beneficial; half-life in blood plasma [6]: very short half-life |
| LIRSELIEELSNITGSFITKLLSYTKQ (listed as Mus musculus) [Link13] |  |  | did not occur | did not take place |  |
| B1 |  | increase neurite outgrowth |  |  |  |
